Where “and” joins values, the source holds several entries; their conditions need not be identical. Equal entries are not always repeated. Toxic doses and inconclusive results are not listed.
Tested on: CD2F1 mice, L1210 leukemia ip, survival T/C
Assay: NCI In Vivo Anticancer Drug Screen. Data for tumor model L1210 Leukemia (intraperitoneal) in CD2F1 (CDF1) mice
Details: higher = longer survival
Outline: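 Compound-dosed mice with transplantable tumor versus matched vehicle controls; endpoint ratio T/C reported.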

[1] = endpoint: mean survival time, dose: 100.0 mg/kg/injection, schedule: Q04DX002 (ip), vehicle: saline with Tween-80
[2] = endpoint: mean survival time, dose: 200.0 mg/kg/injection, schedule: Q04DX002 (ip), vehicle: saline with Tween-80
[3] = endpoint: mean survival time, dose: 100.0 mg/kg/injection, schedule: Q04DX003 (ip), vehicle: saline with Tween-80
[4] = endpoint: mean survival time, dose: 200.0 mg/kg/injection, schedule: Q04DX003 (ip), vehicle: saline with Tween-80
[5] = endpoint: mean survival time, dose: 400.0 mg/kg/injection, schedule: Q04DX003 (ip), vehicle: saline with Tween-80
[6] = endpoint: mean survival time, dose: 100.0 mg/kg/injection, schedule: Q01DX001 (ip), vehicle: saline with Tween-80
[7] = endpoint: mean survival time, dose: 100.0 mg/kg/injection, schedule: Q01DX009 (ip), vehicle: saline with Tween-80
[8] = endpoint: mean survival time, dose: 200.0 mg/kg/injection, schedule: Q01DX001 (ip), vehicle: saline with Tween-80
[9] = endpoint: mean survival time, dose: 200.0 mg/kg/injection, schedule: Q01DX009 (ip), vehicle: saline with Tween-80
[10] = endpoint: mean survival time, dose: 400.0 mg/kg/injection, schedule: Q01DX001 (ip), vehicle: saline with Tween-80
[11] = endpoint: mean survival time, dose: 400.0 mg/kg/injection, schedule: Q01DX009 (ip), vehicle: saline with Tween-80
[12] = endpoint: mean survival time, dose: 100.0 mg/kg/injection, schedule: Q01DX001 (ip), vehicle: saline
[13] = endpoint: mean survival time, dose: 200.0 mg/kg/injection, schedule: Q01DX001 (ip), vehicle: saline
[14] = endpoint: mean survival time, dose: 400.0 mg/kg/injection, schedule: Q01DX001 (ip), vehicle: saline
[15] = endpoint: mean survival time, dose: 6.25 mg/kg/injection, schedule: Q04DX003 (ip), vehicle: saline with Tween-80
[16] = endpoint: mean survival time, dose: 12.5 mg/kg/injection, schedule: Q04DX003 (ip), vehicle: saline with Tween-80
[17] = endpoint: mean survival time, dose: 100.0 mg/kg/injection, schedule: Q04DX003 (ip), vehicle: saline

O=P(O)(CCCCl)c1ccccc1
T/C (endpoint: mean survival time, dose: 25.0 mg/kg/injection, schedule: Q04DX002 (ip), vehicle: saline with Tween-80): 95 % of control | T/C (endpoint: mean survival time, dose: 50.0 mg/kg/injection, schedule: Q04DX002 (ip), vehicle: saline with Tween-80): 91 % of control | T/C [1]: 98 % of control | T/C [2]: 91 % of control

Cc1ccc(C(=O)/C=C/c2ccc(N(C)C)cc2)cc1
T/C [3]: 87 % of control | T/C [4]: 87 % of control | T/C [5]: 89 % of control

Cc1cc(O)c(C(C)C)cc1N=O
T/C [6]: 96 % of control | T/C [7]: 94 % of control | T/C [3]: 103 % of control | T/C [8]: 94 % of control | T/C [9]: 88 % of control | T/C [4]: 100 % of control | T/C [10]: 89 % of control | T/C [11]: 87 % of control | T/C [5]: 106 % of control

COC1OC(C(O)CO)C(O)C(O)C1O (configuration not stated)
T/C [12]: 105 % of control | T/C [3]: 104 % of control | T/C [13]: 96 % of control | T/C [4]: 103 % of control | T/C [14]: 102 % of control | T/C [5]: 98 % of control

CCCCCCCCCC1=NC(C)(C)CN1c1ccccc1
T/C (endpoint: mean survival time, dose: 5.0 mg/kg/injection, schedule: Q01DX009 (ip), vehicle: saline with Tween-80): 98 % of control | T/C (endpoint: mean survival time, dose: 10.0 mg/kg/injection, schedule: Q01DX009 (ip), vehicle: saline with Tween-80): 102 % of control | T/C (endpoint: mean survival time, dose: 20.0 mg/kg/injection, schedule: Q01DX009 (ip), vehicle: saline with Tween-80): 106 % of control

CCCCCCCCCCCCCC(=O)[O][Sn]([CH2]CCC)([CH2]CCC)[O]C(=O)CCCCCCCCCCCCC
T/C (endpoint: mean survival time, dose: 0.78 mg/kg/injection, schedule: Q01DX009 (ip), vehicle: other): 97 % of control | T/C (endpoint: mean survival time, dose: 1.56 mg/kg/injection, schedule: Q01DX009 (ip), vehicle: other): 100 % of control | T/C (endpoint: mean survival time, dose: 3.13 mg/kg/injection, schedule: Q01DX009 (ip), vehicle: other): 112 % of control

COc1ccc([C@@]23Oc4cc(OC)cc(OC)c4[C@]2(O)[C@H](O)[C@H](C(=O)N(C)C)[C@H]3c2ccccc2)cc1
T/C (endpoint: median survival time, dose: 0.25 mg/kg/injection, schedule: Q01DX009 (ip), vehicle: Klucel (hydroxypropylcellulose) (HPC)): 101 % of control | T/C (endpoint: median survival time, dose: 0.5 mg/kg/injection, schedule: Q01DX009 (ip), vehicle: Klucel (hydroxypropylcellulose) (HPC)): 97 % of control | T/C (endpoint: median survival time, dose: 1.0 mg/kg/injection, schedule: Q01DX009 (ip), vehicle: Klucel (hydroxypropylcellulose) (HPC)): 102 % of control | T/C (endpoint: median survival time, dose: 2.0 mg/kg/injection, schedule: Q01DX009 (ip), vehicle: Klucel (hydroxypropylcellulose) (HPC)): 113 % of control | T/C (endpoint: median survival time, dose: 4.0 mg/kg/injection, schedule: Q01DX009 (ip), vehicle: Klucel (hydroxypropylcellulose) (HPC)): 108 % of control

Cc1cc(Cl)c2nc(-c3ccccc3)ccc2c1
T/C [7]: 103 % of control | T/C [9]: 101 % of control | T/C [11]: 97 % of control

CCCCCCCCCCCCCCCCOP(=O)(O)OCCCCCCCCCCCCCCCC
T/C (endpoint: mean survival time, dose: 25.0 mg/kg/injection, schedule: Q01DX009 (ip), vehicle: saline with Tween-80): 96 % of control | T/C (endpoint: mean survival time, dose: 50.0 mg/kg/injection, schedule: Q01DX009 (ip), vehicle: saline with Tween-80): 102 % of control | T/C [7]: 95 % of control

CSC(=S)NN=C(C)C
T/C (endpoint: mean survival time, dose: 6.25 mg/kg/injection, schedule: Q01DX009 (ip), vehicle: saline sonified): 89 % of control | T/C [15]: 96 % of control | T/C (endpoint: mean survival time, dose: 12.5 mg/kg/injection, schedule: Q01DX009 (ip), vehicle: saline sonified): 87 % of control | T/C [16]: 96 % of control

COc1ccccc1CC(C)N (configuration not stated)
T/C (endpoint: mean survival time, dose: 20.0 mg/kg/injection, schedule: Q04DX003 (ip), vehicle: Klucel (hydroxypropylcellulose) (HPC)): 90 % of control | T/C (endpoint: mean survival time, dose: 40.0 mg/kg/injection, schedule: Q04DX003 (ip), vehicle: Klucel (hydroxypropylcellulose) (HPC)): 91 % of control | T/C (endpoint: mean survival time, dose: 80.0 mg/kg/injection, schedule: Q04DX003 (ip), vehicle: Klucel (hydroxypropylcellulose) (HPC)): 96 % of control

c1cc[n+](C[n+]2ccccc2)cc1
T/C [12]: 101 % of control | T/C [17]: 96 % of control | T/C [13]: 101 % of control | T/C (endpoint: mean survival time, dose: 200.0 mg/kg/injection, schedule: Q04DX003 (ip), vehicle: saline): 97 % of control | T/C [14]: 101 % of control | T/C (endpoint: mean survival time, dose: 400.0 mg/kg/injection, schedule: Q04DX003 (ip), vehicle: saline): 100 % of control

COc1ccc(CCNC(=O)Cc2ccc3c(c2)OCO3)cc1OC
T/C [6]: 92 % of control | T/C [1]: 87 % of control | T/C [8]: 93 % of control | T/C [2]: 97 % of control | T/C [10]: 94 % of control | T/C (endpoint: mean survival time, dose: 400.0 mg/kg/injection, schedule: Q04DX002 (ip), vehicle: saline with Tween-80): 93 % of control

NC(=O)CCl
T/C [17]: 110 % of control

[Cl][Pt+2][Cl].[N-]=C(N)/N=C(\[NH-])N
T/C (endpoint: median survival time, dose: 12.5 mg/kg/injection, schedule: Q04DX003 (ip), vehicle: distilled water + Tween-80): 104 % of control | T/C (endpoint: median survival time, dose: 25.0 mg/kg/injection, schedule: Q04DX003 (ip), vehicle: distilled water + Tween-80): 101 % of control | T/C (endpoint: median survival time, dose: 50.0 mg/kg/injection, schedule: Q04DX003 (ip), vehicle: distilled water + Tween-80): 101 % of control | T/C (endpoint: median survival time, dose: 100.0 mg/kg/injection, schedule: Q04DX003 (ip), vehicle: distilled water + Tween-80): 108 % of control | T/C (endpoint: median survival time, dose: 200.0 mg/kg/injection, schedule: Q04DX003 (ip), vehicle: distilled water + Tween-80): 108 % of control

Nc1nc(N)c2c(n1)NCN(CCc1ccc(Cl)cc1Cl)C2
T/C (endpoint: mean survival time, dose: 0.75 mg/kg/injection, schedule: Q01DX009 (ip), vehicle: distilled water + Tween-80): 100 % of control | T/C (endpoint: mean survival time, dose: 1.5 mg/kg/injection, schedule: Q01DX009 (ip), vehicle: distilled water + Tween-80): 102 % of control | T/C (endpoint: mean survival time, dose: 3.0 mg/kg/injection, schedule: Q01DX009 (ip), vehicle: distilled water + Tween-80): 100 % of control | T/C (endpoint: mean survival time, dose: 6.0 mg/kg/injection, schedule: Q01DX009 (ip), vehicle: distilled water + Tween-80): 102 % of control | T/C (endpoint: mean survival time, dose: 12.0 mg/kg/injection, schedule: Q01DX009 (ip), vehicle: distilled water + Tween-80): 96 % of control | T/C (endpoint: mean survival time, dose: 24.0 mg/kg/injection, schedule: Q01DX009 (ip), vehicle: distilled water + Tween-80): 98 % of control | T/C (endpoint: mean survival time, dose: 37.5 mg/kg/injection, schedule: Q01DX009 (ip), vehicle: distilled water + Tween-80): 96 % of control | T/C (endpoint: mean survival time, dose: 75.0 mg/kg/injection, schedule: Q01DX009 (ip), vehicle: distilled water + Tween-80): 94 % of control

Clc1c(Br)nc(Br)nc1C(Cl)(Cl)Cl
T/C [15]: 98 % of control | T/C [16]: 98 % of control | T/C (endpoint: mean survival time, dose: 25.0 mg/kg/injection, schedule: Q04DX003 (ip), vehicle: saline with Tween-80): 98 % of control

S=C(NC1CCCCC1)N1CCC(CCCC2CCN(C(=S)NC3CCCCC3)CC2)CC1
T/C [3]: 87 % of control | T/C [4]: 94 % of control | T/C [5]: 102 % of control

CCN(CC)CC(=O)O[C@]1(CC)C(=O)OCc2c1cc1n(c2=O)Cc2cc3ccccc3nc2-1
T/C (endpoint: median survival time, dose: 1.0 mg/kg/injection, schedule: Q01DX009 (ip), vehicle: water): 124 % of control and 109 % of control | T/C (endpoint: median survival time, dose: 3.75 mg/kg/injection, schedule: Q04DX002 (ip), vehicle: water): 114 % of control and 109 % of control | T/C (endpoint: median survival time, dose: 3.75 mg/kg/injection, schedule: Q04HX004 (iv), vehicle: other): 150 % of control | T/C (endpoint: median survival time, dose: 4.0 mg/kg/injection, schedule: Q01DX009 (ip), vehicle: water): 154 % of control and 163 % of control | T/C (endpoint: median survival time, dose: 7.5 mg/kg/injection, schedule: Q04DX002 (ip), vehicle: water): 124 % of control | T/C (endpoint: median survival time, dose: 7.5 mg/kg/injection, schedule: Q04HX004 (iv), vehicle: dextrose): 183 % of control | T/C (endpoint: median survival time, dose: 7.5 mg/kg/injection, schedule: Q04HX004 (iv), vehicle: other): 175 % of control | T/C (endpoint: median survival time, dose: 8.0 mg/kg/injection, schedule: Q01DX009 (ip), vehicle: water): 113 % of control | T/C (endpoint: median survival time, dose: 15.0 mg/kg/injection, schedule: Q04DX002 (ip), vehicle: water): 157 % of control | T/C (endpoint: median survival time, dose: 15.0 mg/kg/injection, schedule: Q04HX004 (iv), vehicle: dextrose): 218 % of control | T/C (endpoint: median survival time, dose: 15.0 mg/kg/injection, schedule: Q04HX004 (iv), vehicle: other): 203 % of control | T/C (endpoint: median survival time, dose: 30.0 mg/kg/injection, schedule: Q04DX002 (ip), vehicle: water): 223 % of control and 256 % of control | T/C (endpoint: median survival time, dose: 30.0 mg/kg/injection, schedule: Q04HX004 (iv), vehicle: dextrose): 204 % of control | T/C (endpoint: median survival time, dose: 30.0 mg/kg/injection, schedule: Q04HX004 (iv), vehicle: other): 268 % of control
